Experimental data as given in patent publication US11807644B2 (PMV Pharmaceuticals, Inc., priority 2020, dated 2023).

Each compound was assayed against T1, recombinant His-tag Y220C p53 DBD protein (Homo sapiens, UniProt P04637, Y220C) (assay: In vitro DNA binding activity assay (TR-FRET): binding of His-tag Y220C p53 DBD to biotin-labeled consensus DNA). Conditions: SC150 = concentration to increase DNA binding by […], His-tag Y220C p53 DBD, biotin-labeled consensus DNA.
T1 construct: recombinant His-tag Y220C p53 DBD protein (amino acids #˜94-312)
Type: biochemical
Description: DNA binding activity of the compounds was measured using a TR-FRET (Time-Resolved Fluorescence Resonance Energy Transfer) assay in which recombinant His-tag Y220C p53 DBD protein binds to biotin-labeled consensus DNA. Binding of recombinant His-tag Y220C p53 DBD protein and biotin-labeled consensus DNA was registered by the FRET (fluorescence resonance energy transfer) between allophycocyanin (APC) conjugated anti-His tag antibody and Europium-(Eu) conjugated Streptavidin.
The compounds of TABLES 1-9 (2 mM stock in dimethylsulfoxide) were diluted 3-fold in series in dimethylsulfoxide. 1.2 μL of a compound solution was added to each well of 384-well polypropylene black plates (NUNC). Thirty μL per well of 181 nM recombinant His-tag Y220C p53 DBD protein (amino acids #˜94-312; SEQ ID NO: 1) and 6.1 nM of APC conjugated anti-His tag antibody (Columbia Biosciences) in ice-cold Assay Buffer 1 (50 mM Tris-HCl, pH 7.4, 75 mM KCl, 0.75 mM DTT and 0.2 mg/ml, BSA) were added. As a background control. 30 μL of Assay Buffer 1 containing 6.1 nM of APC anti-His antibody (No Y220C protein) was also added into a second set of serially diluted compound plates. The samples were spun by centrifuge at 1,200 rpm (Eppendorf 5810R Plate centrifuge) for 1 minute and incubated at room temperature (20° C.) for 15 min. The samples were then further incubated at either 27° C. or 29° C. for 60 min. […] The samples were spun by centrifuge at 1,200 rpm for 1 min and incubated at room temperature (20° C.) for 20 min. Assay signals were monitored by reading excitation at 340 nm, and emission fluorescence at 615 nm and 665 nm on an Envision® reader. Normalized TR-FRET (time-resolved fluorescence resonance energy transfer) assay signal (Rn) was calculated by the formula: Rn=[(A−Ba−C×(D−Bd))/(D−Bd)]×(D−Bd) Wherein: • A is the fluorescence intensity of the sample at 665 nm; • D is the fluorescence intensity of the sample at 615 nm; • Ba and Bd are plate backgrounds at 665 nm and 615 nm, respectively; and • Dc is the fluorescence intensity of 0.67 nM Eu-SA in the assay buffer at 615 nm.
The cross-talk factor (C) was determined by the following formula: C=(Ac−Ba)/(Dc−Bd) wherein Ac is the fluorescence intensity of 0.67 nM Europium (Eu) conjugated Streptavidin in the assay buffer at 665 nm.
In the case of `CN1CC[C@@H](Nc2cccc3c2cc(-c2noc(CNC(=O)[C@@H]4C[C@@H]4C#N)n2)n3CC(F)(F)F)[C@@H](F)C1` (mixture of isomers) [Compound 195B, (1RS,2SR)-2-cyano-N-{[3-(4-{[(3S,4R)-3-fluoro-1-methylpiperidin-4-yl]amino}-1-(2,2,2-trifluoroethyl)-1H-indol-2-yl)-1,2,4-oxadiazol-5-yl]methyl}cyclopropane-1-carboxamide], the “Y220C SC150 (μM)” value is reported as “* (* = 0 μM ≤ SC150 < 0.1 μM)”.
For `COc1cc(S(C)(=O)=O)ccc1NCc1nnc(-c2cc3c(N[C@H]4CCN(C)C[C@H]4F)cccc3n2CC(F)(F)F)s1` (racemic) [Compound 27B, (+/−)-N-[(3R,4S)-3-fluoro-1-methylpiperidin-4-yl]-2-(5-{[(4-methanesulfonyl-2-methoxyphenyl)amino]methyl}-1,3,4-thiadiazol-2-yl)-1-(2,2,2-trifluoroethyl)-1H-indol-4-amine], the “Y220C SC150 (μM)” value was “** (** = 0.1 μM ≤ SC150 < 0.5 μM)”.
For `COc1cc(S(C)(=O)=O)ccc1NCc1nnc(-c2cc3c(N[C@H]4CCN(C)C[C@@H]4F)cccc3n2CC(F)(F)F)s1` (racemic) [Compound 28B, (+/−)-N-[(3R,4R)-3-fluoro-1-methylpiperidin-4-yl]-2-(5-{[(4-methanesulfonyl-2-methoxyphenyl)amino]methyl}-1,3,4-thiadiazol-2-yl)-1-(2,2,2-trifluoroethyl)-1H-indol-4-amine], the “Y220C SC150 (μM)” value was “* (* = 0 μM ≤ SC150 < 0.1 μM)”.
In the case of `CN1CC[C@H](Nc2cccc3c2cc(-c2nnc(CNC(=O)C4CCCC4)s2)n3CC(F)(F)F)[C@H](F)C1` (racemic) [Compound 29B, (+/−)-N-{[5-(4-{[(3R,4S)-3-fluoro-1-methylpiperidin-4-yl]amino}-1-(2,2,2-trifluoroethyl)-1H-indol-2-yl)-1,3,4-thiadiazol-2-yl]methyl}cyclopentanecarboxamide], the “Y220C SC150 (μM)” value is reported as “** (** = 0.1 μM ≤ SC150 < 0.5 μM)”.
With `CN1CC[C@H](Nc2cccc3c2cc(-c2nnc(CNC(=O)c4cccs4)s2)n3CC(F)(F)F)[C@H](F)C1` (racemic) [Compound 30B, (+/−)-N-{[5-(4-{[(3R,4S)-3-fluoro-1-methylpiperidin-4-yl]amino}-1-(2,2,2-trifluoroethyl)-1H-indol-2-yl)-1,3,4-thiadiazol-2-yl]methyl}thiophene-2-carboxamide] the “Y220C SC150 (μM)” value was “* (* = 0 μM ≤ SC150 < 0.1 μM)”.
With `CN1CCC(Nc2cccc3c2cc(-c2nnc(CNC(=O)C4CC4(F)F)s2)n3CC(F)(F)F)CC1` (racemic) [Compound 32B, (+/−)-2,2-difluoro-N-[(5-{4-[(1-methylpiperidin-4-yl)amino]-1-(2,2,2-trifluoroethyl)-1H-indol-2-yl}-1,3,4-thiadiazol-2-yl)methyl]cyclopropane-1-carboxamide] the “Y220C SC150 (μM)” value was “** (** = 0.1 μM ≤ SC150 < 0.5 μM)”.
In the case of `C[C@H]1C[C@H]1C(=O)NCc1nnc(-c2cc3c(NC4CCN(C)CC4)cccc3n2CC(F)(F)F)s1` (racemic) [Compound 33B, (+/−)-(1R,2S)-2-methyl-N-[(5-{4-[(1-methylpiperidin-4-yl)amino]-1-(2,2,2-trifluoroethyl)-1H-indol-2-yl}-1,3,4-thiadiazol-2-yl)methyl]cyclopropane-1-carboxamide], the “Y220C SC150 (μM)” value is reported as “** (** = 0.1 μM ≤ SC150 < 0.5 μM)”.
In the case of `C[C@@H]1C[C@H]1C(=O)NCc1nnc(-c2cc3c(NC4CCN(C)CC4)cccc3n2CC(F)(F)F)s1` (racemic) [Compound 34B, (+/−)-(1R,2R)-2-methyl-N-[(5-{4-[(1-methylpiperidin-4-yl)amino]-1-(2,2,2-trifluoroethyl)-1H-indol-2-yl}-1,3,4-thiadiazol-2-yl)methyl]cyclopropane-1-carboxamide], the “Y220C SC150 (μM)” value is reported as “* (* = 0 μM ≤ SC150 < 0.1 μM)”.
With `CN1CC[C@@H](Nc2cccc3c2cc(-c2nnc(CNC(=O)C4COC4)s2)n3CC(F)(F)F)[C@@H](F)C1` (racemic) [Compound 36B, (+/−)-N-{[5-(4-{[(3R,4S)-3-fluoro-1-methylpiperidin-4-yl]amino}-1-(2,2,2-trifluoroethyl)-1H-indol-2-yl)-1,3,4-thiadiazol-2-yl]methyl}oxetane-3-carboxamide] the “Y220C SC150 (μM)” value was “** (** = 0.1 μM ≤ SC150 < 0.5 μM)”.
`CN1CC[C@@H](Nc2cccc3c2cc(-c2nnc(CNC(=O)C4CCC4)s2)n3CC(F)(F)F)[C@@H](F)C1` (racemic) [Compound 37B, (+/−)-N-{[5-(4-{[(3R,4S)-3-fluoro-1-methylpiperidin-4-yl]amino}-1-(2,2,2-trifluoroethyl)-1H-indol-2-yl)-1,3,4-thiadiazol-2-yl]methyl}cyclobutanecarboxamide] was tested, and the “Y220C SC150 (μM)” value was “** (** = 0.1 μM ≤ SC150 < 0.5 μM)”.
In the case of `COC(=O)NCc1nnc(-c2cc3c(N[C@@H]4CCN(C)C[C@@H]4F)cccc3n2CC(F)(F)F)s1` (racemic) [Compound 38B, (+/−)-methyl N-{[5-(4-{[(3R,4S)-3-fluoro-1-methylpiperidin-4-yl]amino}-1-(2,2,2-trifluoroethyl)-1H-indol-2-yl)-1,3,4-thiadiazol-2-yl]methyl}carbamate], the “Y220C SC150 (μM)” value is reported as “* (* = 0 μM ≤ SC150 < 0.1 μM)”.
`CN1CCC(C(=O)NCc2nnc(-c3cc4c(N[C@@H]5CCN(C)C[C@@H]5F)cccc4n3CC(F)(F)F)s2)CC1` (racemic) [Compound 40B, (+/−)-N-{[5-(4-{[(3R,4S)-3-fluoro-1-methylpiperidin-4-yl]amino}-1-(2,2,2-trifluoroethyl)-1H-indol-2-yl)-1,3,4-thiadiazol-2-yl]methyl}-1-methylpiperidine-4-carboxamide] was tested, and the “Y220C SC150 (μM)” value was “*** (*** = 0.5 μM ≤ SC150 < 1 μM)”.
For `CNCc1nnc(-c2cc3c(N[C@@H]4CCN(C)C[C@@H]4F)cccc3n2CC(F)(F)F)s1` (racemic) [Compound 43B, (+/−)-N-[(3R,4S)-3-fluoro-1-methylpiperidin-4-yl]-2-{5-[(methylamino)methyl]-1,3,4-thiadiazol-2-yl}-1-(2,2,2-trifluoroethyl)-1H-indol-4-amine], the “Y220C SC150 (μM)” value was “**** (**** = 1 μM ≤ SC150 < 10 μM)”.
For `CN1CC[C@@H](Nc2cccc3c2cc(-c2nnc(CNC(=O)OCc4ccccc4)s2)n3CC(F)(F)F)[C@@H](F)C1` (racemic) [Compound 44B, (+/−)-benzyl N-{[5-(4-{[(3R,4S)-3-fluoro-1-methylpiperidin-4-yl]amino}-1-(2,2,2-trifluoroethyl)-1H-indol-2-yl)-1,3,4-thiadiazol-2-yl]methyl}carbamate], the “Y220C SC150 (μM)” value was “* (* = 0 μM ≤ SC150 < 0.1 μM)”.

Same assay, conditions: concentration to increase DNA binding by […], incubated at either 27° C. or 29° C. for 60 min
For `CN1CC[C@H](Nc2cccc3c2cc(-c2ccc(CNC4CC4)cc2)n3CC(F)(F)F)[C@H](F)C1` (racemic) [Compound 42A, (+/−)-2-{4-[(cyclopropylamino)methyl]phenyl}-N-[(3R,4S)-3-fluoro-1-methylpiperidin-4-yl]-1-(2,2,2-trifluoroethyl)-1H-indol-4-amine], the “SC150 (μM)” value was “++++ (++++ = 10 μM ≤ SC150 < 35 μM)”.
With `COc1cc(S(C)(=O)=O)ccc1NCc1ccc(-c2cc3c(N[C@H]4CCN(C)C[C@H]4F)cccc3n2CC(F)(F)F)cc1` (racemic) [Compound 43A, (+/−)-N-[(3R,4S)-3-fluoro-1-methylpiperidin-4-yl]-2-(4-{[(4-methanesulfonyl-2-methoxyphenyl)amino]methyl}phenyl)-1-(2,2,2-trifluoroethyl)-1H-indol-4-amine] the “SC150 (μM)” value was “+ (+ = 0 μM ≤ SC150 < 2 μM)”.
For `CN1CC[C@H](Nc2cccc3c2cc(-c2ccc(CNC(=O)c4ccccc4)cc2)n3CC(F)(F)F)[C@H](F)C1` (racemic) [Compound 45A, (+/−)-N-{[4-(4-{[(3R,4S)-3-fluoro-1-methylpiperidin-4-yl]amino}-1-(2,2,2-trifluoroethyl)-1H-indol-2-yl)phenyl]methyl}benzamide], the “SC150 (μM)” value was “+ (+ = 0 μM ≤ SC150 < 2 μM)”.
